The text below walks through data of ChEMBL document CHEMBL2029339, “Acylthiourea, acylurea, and acylguanidine derivatives with potent hedgehog inhibiting activity” (J Med Chem, 2012).

In test [1] the target is Smoothened (Mus musculus) (UniProt P56726). Description: Inhibition of Smo-mediated Hh signaling in mouse Shh-light2 cells at 3 uM by luciferase reporter gene assay. The note with it: Shh Light II.
Test [2] relates to C3H 10T1/2. Description: Inhibition of SAG-induced differentiation of mouse mesenchymal pluripotent C3H10T1/2 cells to alkaline phosphatase positive oeseoblasts at 10 uM after 6 days. Particulars: C3H 10T1/2, 6 days.
The subject of test [3] is C3H 10T1/2. Put plainly: Inhibition of SAG-induced differentiation of mouse mesenchymal pluripotent C3H10T1/2 cells to alkaline phosphatase positive oeseoblasts after 6 days. The note with it: C3H 10T1/2, 6 days.

Active and inactive are the calls of the source. The calls are words filed in the database; no cut-off is given here.

Smoothened (Mus musculus), sequence (P56726 whole entry, looked up): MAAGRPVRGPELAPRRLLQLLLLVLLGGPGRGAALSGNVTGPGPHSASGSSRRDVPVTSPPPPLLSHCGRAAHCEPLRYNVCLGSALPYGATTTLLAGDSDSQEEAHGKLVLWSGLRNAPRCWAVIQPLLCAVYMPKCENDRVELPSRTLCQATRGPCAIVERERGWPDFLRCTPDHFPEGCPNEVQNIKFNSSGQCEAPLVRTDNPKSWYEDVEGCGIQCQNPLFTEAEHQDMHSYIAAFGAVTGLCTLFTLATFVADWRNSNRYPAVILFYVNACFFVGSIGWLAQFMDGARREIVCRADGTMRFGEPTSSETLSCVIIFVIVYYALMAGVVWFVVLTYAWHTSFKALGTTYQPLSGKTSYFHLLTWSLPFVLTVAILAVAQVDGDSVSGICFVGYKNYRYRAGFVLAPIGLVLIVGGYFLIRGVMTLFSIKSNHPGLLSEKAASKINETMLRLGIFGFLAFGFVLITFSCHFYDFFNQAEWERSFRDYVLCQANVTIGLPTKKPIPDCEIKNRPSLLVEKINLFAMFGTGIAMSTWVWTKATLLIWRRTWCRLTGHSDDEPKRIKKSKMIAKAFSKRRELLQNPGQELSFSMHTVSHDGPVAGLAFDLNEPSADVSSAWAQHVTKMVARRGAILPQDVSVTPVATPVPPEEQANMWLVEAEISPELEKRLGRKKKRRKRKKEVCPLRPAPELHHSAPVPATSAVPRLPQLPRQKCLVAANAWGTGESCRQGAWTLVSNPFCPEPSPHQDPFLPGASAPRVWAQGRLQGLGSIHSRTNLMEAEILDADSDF

Take `COc1cc(C(=O)NC(=S)Nc2cccc(NC(=O)Nc3ccccc3)c2)cc(OC)c1OC`: the inhibition in test [1] stood at 78%. Also, the inhibition at 10 µM in test [2] is 104%.
For `COc1ccc(C(=O)Nc2cccc(NC(=S)NC(=O)c3cc(OC)c(OC)c(OC)c3)c2)cc1`, the inhibition in test [1] stood at 93%. Also, in test [3], the IC50 came to 1.6 µM. Besides, the inhibition at 10 µM in test [2] came to 85%.
On to `COc1cc(OC)cc(C(=O)NC(=S)Nc2cccc(NC(=O)c3ccccc3)c2)c1`, for which the inhibition in test [1] is 84%. Also, half-maximal inhibition in test [3] (IC50) required 1.9 µM.
Regarding `COc1cc(C(=O)NC(=S)Nc2cccc(NC(=O)c3ccc(Cl)cc3)c2)cc(OC)c1OC`, in test [1], the inhibition was found to be 99%. Also, the IC50 in test [3] was 0.8 µM. Besides, the inhibition at 10 µM in test [2] turned out to be 96%.
Turning to `COc1cc(C(=O)NC(=S)Nc2cccc(NC(=O)c3cc(OC)c(OC)c(OC)c3)c2)cc(OC)c1OC`, the inhibition in test [1] is 37%. In addition, in test [2], the inhibition at 10 µM worked out at 74%.
Turning to `COc1cc(C(=O)NC(=S)Nc2cccc(NC(=O)c3ccncc3)c2)cc(OC)c1OC`, the inhibition in test [1] amounted to 67%. Also, the inhibition at 10 µM in test [2] came to 82%.
`O=C(NC(=S)Nc1cccc(NC(=O)c2ccccc2)c1)c1ccc2c(c1)OCCO2`: the inhibition entry in test [1] is “inactive”.
Take `CCOc1cc(C(=O)NC(=S)Nc2cccc(NC(=O)c3ccccc3)c2)cc(OCC)c1OCC`: the inhibition in test [1] was 100%. For the same molecule, the IC50 in test [3] worked out at 0.8 µM.
Consider `COc1cc(C(=O)NC(=S)Nc2cccc(NC(=O)c3ccccc3Cl)c2)cc(OC)c1OC`, for which the inhibition in test [1] amounted to 66%. In addition, the half-maximal inhibitory concentration (IC50) in test [3] was determined as 2.5 µM. In addition, the inhibition at 10 µM in test [2] came out at 80%.
For the molecule `COc1cc(C(=O)NC(=S)Nc2cccc(NC(=O)C3CCCCC3)c2)cc(OC)c1OC`, in test [1], the inhibition is 14%. For the same molecule, the inhibition at 10 µM in test [2] worked out at 26%.
For `CCOc1cc(C(=O)NC(=S)Nc2cccc(NC(=O)c3ccccc3)c2)cc(OC)c1OCC`, the inhibition in test [1] came out at 100%. Also, the IC50 in test [3] is 0.8 µM.
`COc1cc(C(=O)NC(=S)Nc2cccc(NC(=O)c3cccs3)c2)cc(OC)c1OC`: the inhibition in test [1] came to 13%. The inhibition at 10 µM in test [2] came out at 60%.
For `COc1ccc(C(=O)NC(=S)Nc2cccc(NC(=O)c3ccccc3)c2)cc1OC`, in that order: 71% and 45%.
On the same counts, the results for `COc1cc(C(=O)NC(=S)Nc2cccc(NC(=O)c3ccc(N4CCOCC4)cc3)c2)cc(OC)c1OC` are 90% and 55%.
For `COc1cc(C(=O)NC(=S)Nc2cccc(NC(=O)c3cccc4ccccc34)c2)cc(OC)c1OC`, in that order: 64% and 63%.
Regarding `COc1cc(C(=O)NC(=S)Nc2cccc(NC(=O)Nc3ccc(-c4ccccc4)cc3)c2)cc(OC)c1OC`, in test [1], the inhibition is 71%. Further, the inhibition at 10 µM in test [2] was found to be 91%.
On the same counts, the results for `COc1cc(C(=O)NC(=S)Nc2cccc(-n3cnc4ccccc43)c2)cc(OC)c1OC` are 84% and 60%.
Turning to `COc1ccc(C(=O)NC(=S)Nc2cccc(NC(=O)c3ccccc3)c2)c(OC)c1`, the inhibition in test [1] came out at 34%. The molecule further registered a half-maximal inhibitory concentration (IC50) in test [3] of 4.1 µM.
Take `COc1cc(C(=O)NC(=S)Nc2cccc(NC(=O)c3ccccc3)c2)cc2c1OCO2`: in test [1], the inhibition amounted to 92%. In test [3], this molecule gave an IC50 of 1.1 µM.
With `CCOc1c(OC)cc(C(=O)NC(=S)Nc2cccc(NC(=O)c3ccccc3)c2)cc1OC`, the inhibition in test [1] stood at 99%. In test [3], this molecule registered an IC50 of 0.6 µM.
For `COc1cc(C(=O)NC(=S)Nc2cccc(NC(=O)C(C)C)c2)cc(OC)c1OC`, the inhibition in test [1] was found to be 6%. In addition, the inhibition at 10 µM in test [2] turned out to be 6%.
With `COc1cc(C(=O)NC(=S)Nc2cccc(-n3ccc4ccccc43)c2)cc(OC)c1OC`, the inhibition in test [1] turned out to be 69%. Besides, the inhibition at 10 µM in test [2] was determined as 92%.
For `COc1cc(C(=O)NC(=S)Nc2cccc(NC(=O)c3ccc4ccccc4c3)c2)cc(OC)c1OC`, in test [1], the inhibition stood at 24%. In addition, the inhibition at 10 µM in test [2] came out at 59%.
For `COc1cc(C(=O)NC(=S)Nc2cccc(NC(=O)c3ccco3)c2)cc(OC)c1OC`, in that order: 53% and 67%.
